Test results taken from ChEMBL document CHEMBL1135829, “Investigations on estrogen receptor binding. The estrogenic, antiestrogenic, and cytotoxic properties of C2-alkyl-substituted 1,1-bis(4-hydroxyphenyl)-2-phenylethenes” (J Med Chem, 2002).

Legend:
MCF-7 (Homo sapiens) [1] = test: Antitumor activity against MCF-7 cells at 5 uM.
Estrogen receptor = biological target: T1, Estrogen receptor (Homo sapiens, UniProt P03372); test: Antiestrogenic activity in MCF-7-2a cells as concentration required to reduce estradiol effect by 50%; type: functional, cell-based
T1 sequence (P03372 whole entry): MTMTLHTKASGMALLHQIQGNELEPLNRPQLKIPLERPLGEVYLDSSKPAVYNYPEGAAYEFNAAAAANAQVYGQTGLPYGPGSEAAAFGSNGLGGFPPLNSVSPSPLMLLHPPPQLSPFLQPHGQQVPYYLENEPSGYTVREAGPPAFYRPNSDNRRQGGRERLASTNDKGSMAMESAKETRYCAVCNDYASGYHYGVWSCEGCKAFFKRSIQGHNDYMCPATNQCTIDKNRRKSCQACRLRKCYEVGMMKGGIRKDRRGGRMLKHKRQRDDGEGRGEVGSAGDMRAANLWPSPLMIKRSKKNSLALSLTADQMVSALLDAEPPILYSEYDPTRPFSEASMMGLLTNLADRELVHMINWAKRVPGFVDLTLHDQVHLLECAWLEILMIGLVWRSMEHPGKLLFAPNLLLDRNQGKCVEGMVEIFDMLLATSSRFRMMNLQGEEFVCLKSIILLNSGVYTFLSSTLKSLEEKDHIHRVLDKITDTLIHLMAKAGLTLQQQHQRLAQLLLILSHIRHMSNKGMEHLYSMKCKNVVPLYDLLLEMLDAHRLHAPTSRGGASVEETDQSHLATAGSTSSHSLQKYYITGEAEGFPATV

MCF-7 (Homo sapiens) [2] = test: Cytotoxicity against MCF-7 cells at 5 uM.

SMILES | IC50 (Estrogen receptor) | Cytotoxicity (MCF-7 (Homo sapiens) [1]) | Cytotoxicity (MCF-7 (Homo sapiens) [2])
Oc1ccc(C(=Cc2ccccc2)c2ccc(O)cc2)cc1 | 150 nM | 92% | –
CC/C(=C(\c1ccccc1)c1ccc(OCCN(C)C)cc1)c1ccccc1 [TAMOXIFEN] | – | 15% | –
Oc1ccc(C(=C(CC(F)(F)F)c2ccccc2)c2ccc(O)cc2)cc1 | 9 nM | – | 68%
CC/C(=C(\c1ccccc1)c1ccc(O)cc1)c1ccccc1 | 7 nM | 25% | –

The next lines start with results.

IC50 (Estrogen receptor) | SMILES | Cytotoxicity (MCF-7 (Homo sapiens) [1]) | Cytotoxicity (MCF-7 (Homo sapiens) [2])
50 nM | CCCC(=C(c1ccc(O)cc1)c1ccc(O)cc1)c1ccccc1 | – | 98%
15 nM | CCC(=C(c1ccc(O)cc1)c1ccc(O)cc1)c1ccccc1 | – | 99%
30 nM | CC(=C(c1ccc(O)cc1)c1ccc(O)cc1)c1ccccc1 | – | 90%
500 nM | CCCCC(=C(c1ccc(O)cc1)c1ccc(O)cc1)c1ccccc1 | 87% | –
